Source: patent US20120165244A1, “METHODS FOR BINDING LEWIS Y ANTIGEN” (priority 2008, published 2012)

Key:
[1] = LPS binding assay (coated wells); parameters: species or system E. coli
Procedure: K. pneumoniae (3×10^5 CFU/well), E. coli O111:B4 smooth-type LPS (5 μg/well), or bovine serum albumin (BSA, 5 μg/well) in 100 μL of bicarbonate buffer (pH 9.6) were coated onto wells of high-binding microtiter plate (Corning Costar, Cambridge, Mass.). Nonspecific binding was blocked with binding buffer (20 mM Tris-HCl, pH 7.4, 0.15 M NaCl, 5 mM CaCl2) containing 50 mg/mL BSA. Various concentrations of rTMD proteins without or with CD14 (10 μg/mL; R&D Systems) in binding buffer containing 1 mg/mL BSA were added to wells and incubated for 2 hours. In some experiments, 0.2 M mannose, 5 mM EDTA, or Le^y were included in the binding buffer to compete with LPS and rTMD1 binding. Antibody against the c-Myc epitope of the rTMD proteins was added to wells and incubated for 2 hours, and peroxidase-labeled secondary antibody followed. Binding of rTMD proteins was detected by measuring absorbance at 450 nm.

[2] = system: K. pneumoniae; test: Bacterial agglutination, FITC-labeled K. pneumoniae; conditions: 0.2 M mannose or 5 mM EDTA
Procedure: (§1) K. pneumoniae and E. coli DH5α (BCRC) were washed twice in 0.1 M sodium bicarbonate buffer (pH 9.6) and incubated with 0.1 mg/mL fluorescein isothiocyanate (FITC) at 37° C. in the dark. Each of 20 μg/mL of rTMD1, non-tagged rTMD1, mammalian rTMD1, and recombinant TM domains 2 and 3 (rTMD23) was co-incubated with FITC-labeled bacteria (1×10^5CFU/mL) in buffer (20 mM Tris, pH 7.4, 0.15 M NaCl, 5 mM CaCl2, 1 mg/mL BSA) with or without 0.2 M mannose or 5 mM EDTA. Samples were individually placed on a glass slide and fluorescently-labeled bacteria were observed microscopically to evaluate agglutination.

[3] = system: E. coli DH5α; test: Bacterial agglutination, FITC-labeled E. coli DH5α; conditions: 0.2 M mannose or 5 mM EDTA
Procedure: as §1

[4] = biological target: T1, HMGB1 and rTMD1 interaction (Homo sapiens, UniProt P07204); test: Effect of Le^y on the binding of HMGB1 with rTMD1
T1 construct: TMD1 (residues Ala^1-Ala^155); 6xHis (C); enterokinase cutting site (internal); made in house
T1 sequence (P07204 19-173): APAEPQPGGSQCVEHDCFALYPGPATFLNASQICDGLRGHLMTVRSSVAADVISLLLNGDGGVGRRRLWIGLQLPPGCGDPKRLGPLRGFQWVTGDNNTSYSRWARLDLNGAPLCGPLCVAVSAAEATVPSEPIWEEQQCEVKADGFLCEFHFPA
T1 sequence (P09429 whole entry partner): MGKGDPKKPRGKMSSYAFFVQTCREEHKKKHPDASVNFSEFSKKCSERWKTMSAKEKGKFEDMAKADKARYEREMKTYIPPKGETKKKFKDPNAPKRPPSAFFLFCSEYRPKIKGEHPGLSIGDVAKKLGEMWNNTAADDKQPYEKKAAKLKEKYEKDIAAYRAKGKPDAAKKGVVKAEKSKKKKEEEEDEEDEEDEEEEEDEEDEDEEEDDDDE

[5] = biological target: T2, rTMD1 (Homo sapiens, UniProt P07204); test: rTMD1 ligand analysis (AlphaScreen); type: binding; conditions: mammalian- or Pichia-expressed rTMD1
T2 construct: TMD1 (residues Ala^1-Ala^155); made in house
T2 sequence (P07204 19-173): as the sequence (P07204 19-173) above
Procedure: Biotin-polyacrylamide (Biotin-PAA)-sugars (GlycoTech, Rockville, Mass.), rTMD1, rabbit anti-mouse IgG antibody (Zymed), mouse anti-6× His tag antibody (Abcam, Cambridge, UK), and streptavidin-coated donor and protein A conjugated acceptor beads (PerkinElmer, Boston, Mass.) were diluted with assay buffer containing 25 mM Tris (pH 7.0), 25 mM CaCl2, and 1 mg/mL BSA to appropriate concentrations. The anti-6× His tag antibody, rabbit anti-mouse IgG antibody, and acceptor beads were incubated with assay buffer for 1 hour at 25° C. before use (as the acceptor mixture). Biotin-PAA-sugars, rTMD1, and donor beads were separately added to wells of ProxiPlate-384 assay plates (PerkinElmer) and incubated at 25° C. for 1 hour. An aliquot of the acceptor mixture was then added to the wells and incubated at 25° C. for another 2 hours. The results were read on a PerkinElmer Envision instrument using the AlphaScreen program. All the procedures and incubations were carried out in the dark.

[6] = system: rTMD1; test: Effect of Le^y on the blocking effect of rTMD1 on LPS-induced signaling pathways (Western blot); type: cell-based; conditions: rTMD1 20 μg/mL, LPS 100 ng/mL
Procedure: rTMD1 (0-50 μg/mL, equals 0-2.18 nmole/mL) pre-incubated without or with Escherichia coli (E. coli) LPS (LPS O111:B4, Sigma-Aldrich) in the absence or presence of Lewis Y (Le^y; Dextra Laboratories, Reading, UK) for 30 minutes was used to stimulate THP-1 or RAW 264.7 cells. Incubation period included 15 minutes for pIκB and IκB (B-9 and C-21, Santa Cruz Biotechnology, Santa Cruz, Calif., unless otherwise noted), 20 minutes for p38 (C-20) and pp38 (D-8), 30 minutes for ERK1/2 (K-23), pERK1/2 (E-4), lamin B2 (E-3, Zymed Laboratories, San Francisco, Calif.), NF-κB p50 (C-19) and NF-κB p65 nuclear translocation (C-20), and 24 hours for iNOS expression using a specific antibody (N-20).

## O=C(O)CN(CCN(CC(=O)O)CC(=O)O)CC(=O)O [EDTA, reference compound]
[1]; 0.2 M mannose or 5 mM EDTA, rTMD1 50 μg/mL
  effect on binding of rTMD1 to LPS: inhibited
[2]
  effect on rTMD1 agglutination activity, K. pneumoniae: attenuated
[3]
  effect on rTMD1 agglutination activity, E. coli DH5α: attenuated

## Fucα1-2Galβ1-4(Fucα1-3)GlcNAc [Le^y]
[1]; various concentrations of Le^y, FIG. 6B
  effect on binding of rTMD1 with LPS: specifically inhibited
[4]
  effect on HMGB1 and rTMD1 interaction: could not abrogate
[5]
  rTMD1 affinity of carbohydrate ligand: specific ligand
[6]
  effect on blocking effects of rTMD1 on LPS-induced ERK1/2 phosphorylation, IκBα degradation, and NF-κB p50 and p65 nuclear translocation: dose-dependently neutralize
